Reference: PubChem BioAssay AID180 (DTP/NCI, 2004)
Values joined by “and” are separate entries in the source; they are usually repeats but may differ in a detail not shown here. Identical values can stand only once.

Tested on: BDF1 mice, Adenocarcinoma 755 s.c., tumor weight T/C
Assay: NCI In Vivo Anticancer Drug Screen. Data for tumor model Adenocarcinoma 755 (subcutaneous) in B6D2F1 (BDF1) mice
Settings: endpoint: mean tumor weight, higher = larger tumour
Summary of the method: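 Transplantable tumor implanted; mice dosed with compound or vehicle; survival or tumor size recorded; ratio of treated to vehicle control reported.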

[1] = dose: 25.0 mg/kg/injection, schedule: Q01DX011 (ip), vehicle: methylcellulose (MC)

SMILES: CSc1ncnc2nc[nH]c12
- T/C (dose: 0.5 mg/kg/injection, schedule: Q#A X022 (ip), vehicle: carboxymethylcellulose (CMC)): 64 % of control
- T/C (dose: 1.0 mg/kg/injection, schedule: Q01DX011 (im), vehicle: carboxymethylcellulose (CMC)): 99 % of control
- T/C (dose: 1.0 mg/kg/injection, schedule: Q01DX011 (oral), vehicle: carboxymethylcellulose (CMC)): 58 % of control
- T/C (dose: 1.0 mg/kg/injection, schedule: Q01DX011 (sc), vehicle: carboxymethylcellulose (CMC)): 58 % of control
- T/C (dose: 1.5 mg/kg/injection, schedule: Q01DX011 (ip), vehicle: carboxymethylcellulose (CMC)): 50 % of control
- T/C (dose: 2.5 mg/kg/injection, schedule: Q#A X022 (ip), vehicle: carboxymethylcellulose (CMC)): 46 % of control
- T/C (dose: 3.0 mg/kg/injection, schedule: Q01DX011 (ip), vehicle: carboxymethylcellulose (CMC)): 82 % of control
- T/C (dose: 5.0 mg/kg/injection, schedule: Q01DX011 (im), vehicle: carboxymethylcellulose (CMC)): 89 % of control
- T/C (dose: 5.0 mg/kg/injection, schedule: Q01DX011 (oral), vehicle: carboxymethylcellulose (CMC)): 5 % of control and 26 % of control
- T/C (dose: 5.0 mg/kg/injection, schedule: Q01DX011 (sc), vehicle: carboxymethylcellulose (CMC)): 60 % of control
- T/C (dose: 5.0 mg/kg/injection, schedule: Q03DX004 (ip), vehicle: carboxymethylcellulose (CMC)): 70 % of control
- T/C (dose: 5.0 mg/kg/injection, schedule: Q#A X022 (ip), vehicle: carboxymethylcellulose (CMC)): 40 % of control
- T/C (dose: 6.0 mg/kg/injection, schedule: Q01DX011 (ip), vehicle: carboxymethylcellulose (CMC)): 28 % of control
- T/C (dose: 7.5 mg/kg/injection, schedule: Q#A X022 (ip), vehicle: carboxymethylcellulose (CMC)): 40 % of control
- T/C (dose: 10.0 mg/kg/injection, schedule: Q01DX001 (ip), vehicle: carboxymethylcellulose (CMC)): 94 % of control
- T/C (dose: 10.0 mg/kg/injection, schedule: Q01DX011 (sc), vehicle: carboxymethylcellulose (CMC)): 30 % of control
- T/C (dose: 10.0 mg/kg/injection, schedule: Q03DX004 (ip), vehicle: carboxymethylcellulose (CMC)): 86 % of control
- T/C (dose: 12.0 mg/kg/injection, schedule: Q01DX011 (ip), vehicle: carboxymethylcellulose (CMC)): 13 % of control
- T/C (dose: 12.5 mg/kg/injection, schedule: Q#A X022 (ip), vehicle: carboxymethylcellulose (CMC)): 4 % of control
- T/C (dose: 15.0 mg/kg/injection, schedule: Q01DX011 (im), vehicle: carboxymethylcellulose (CMC)): 8 % of control
- T/C (dose: 15.0 mg/kg/injection, schedule: Q01DX011 (oral), vehicle: carboxymethylcellulose (CMC)): 5 % of control
- T/C (dose: 15.0 mg/kg/injection, schedule: Q01DX011 (sc), vehicle: carboxymethylcellulose (CMC)): 4 % of control
- T/C (dose: 25.0 mg/kg/injection, schedule: Q01DX001 (ip), vehicle: carboxymethylcellulose (CMC)): 53 % of control
- T/C (dose: 25.0 mg/kg/injection, schedule: Q01DX006 (iv), vehicle: carboxymethylcellulose (CMC)): 36 % of control
- T/C (dose: 25.0 mg/kg/injection, schedule: Q01DX011 (im), vehicle: carboxymethylcellulose (CMC)): 6 % of control
- T/C (dose: 25.0 mg/kg/injection, schedule: Q01DX011 (ip), vehicle: carboxymethylcellulose (CMC)): 1 % of control
- T/C (dose: 25.0 mg/kg/injection, schedule: Q01DX011 (oral), vehicle: carboxymethylcellulose (CMC)): 11 % of control
- T/C (dose: 25.0 mg/kg/injection, schedule: Q03DX004 (ip), vehicle: carboxymethylcellulose (CMC)): 82 % of control
- T/C (dose: 25.0 mg/kg/injection, schedule: Q#A X022 (ip), vehicle: carboxymethylcellulose (CMC)): 2 % of control
- T/C (dose: 50.0 mg/kg/injection, schedule: Q01DX001 (ip), vehicle: carboxymethylcellulose (CMC)): 41 % of control
- T/C (dose: 50.0 mg/kg/injection, schedule: Q01DX006 (iv), vehicle: carboxymethylcellulose (CMC)): 37 % of control
- T/C (dose: 50.0 mg/kg/injection, schedule: Q01DX011 (ip), vehicle: carboxymethylcellulose (CMC)): 1 % of control
- T/C (dose: 50.0 mg/kg/injection, schedule: Q01DX011 (oral), vehicle: carboxymethylcellulose (CMC)): 1 % of control and 3 % of control
- T/C (dose: 50.0 mg/kg/injection, schedule: Q03DX004 (ip), vehicle: carboxymethylcellulose (CMC)): 80 % of control
- T/C (dose: 50.0 mg/kg/injection, schedule: Q#A X022 (ip), vehicle: carboxymethylcellulose (CMC)): 2 % of control
- T/C (dose: 75.0 mg/kg/injection, schedule: Q01DX001 (ip), vehicle: carboxymethylcellulose (CMC)): 80 % of control
- T/C (dose: 75.0 mg/kg/injection, schedule: Q03DX004 (ip), vehicle: carboxymethylcellulose (CMC)): 14 % of control
- T/C (dose: 100.0 mg/kg/injection, schedule: Q01DX001 (ip), vehicle: carboxymethylcellulose (CMC)): 46 % of control
- T/C (dose: 100.0 mg/kg/injection, schedule: Q01DX006 (iv), vehicle: carboxymethylcellulose (CMC)): 21 % of control
- T/C (dose: 100.0 mg/kg/injection, schedule: Q01DX011 (ip), vehicle: carboxymethylcellulose (CMC)): 1 % of control
- T/C (dose: 100.0 mg/kg/injection, schedule: Q01DX011 (oral), vehicle: carboxymethylcellulose (CMC)): 5 % of control
- T/C (dose: 125.0 mg/kg/injection, schedule: Q01DX001 (ip), vehicle: carboxymethylcellulose (CMC)): 37 % of control
- T/C (dose: 150.0 mg/kg/injection, schedule: Q03DX004 (ip), vehicle: carboxymethylcellulose (CMC)): 2 % of control
- T/C (dose: 200.0 mg/kg/injection, schedule: Q01DX006 (iv), vehicle: carboxymethylcellulose (CMC)): 4 % of control
- T/C (dose: 375.0 mg/kg/injection, schedule: Q01DX001 (ip), vehicle: carboxymethylcellulose (CMC)): 53 % of control

SMILES: CN(C)/N=N/c1nc[nH]c1C(N)=O
- T/C (dose: 5.0 mg/kg/injection, schedule: Q01DX011 (ip), vehicle: carboxymethylcellulose (CMC)): 79 % of control
- T/C (dose: 10.0 mg/kg/injection, schedule: Q01DX011 (ip), vehicle: carboxymethylcellulose (CMC)): 59 % of control
- T/C (dose: 12.0 mg/kg/injection, schedule: Q01DX011 (ip), vehicle: methylcellulose (MC)): 50 % of control
- T/C (dose: 16.0 mg/kg/injection, schedule: Q01DX011 (ip), vehicle: methylcellulose (MC)): 54 % of control
- T/C (dose: 20.0 mg/kg/injection, schedule: Q01DX011 (ip), vehicle: carboxymethylcellulose (CMC)): 53 % of control and 57 % of control
- T/C (dose: 20.0 mg/kg/injection, schedule: Q01DX011 (ip), vehicle: saline): 64 % of control
- T/C [1]: 37 % of control
- T/C (dose: 31.0 mg/kg/injection, schedule: Q01DX011 (ip), vehicle: carboxymethylcellulose (CMC)): 52 % of control
- T/C (dose: 31.0 mg/kg/injection, schedule: Q01DX011 (ip), vehicle: methylcellulose (MC)): 62 % of control
- T/C (dose: 40.0 mg/kg/injection, schedule: Q01DX011 (ip), vehicle: saline): 63 % of control
- T/C (dose: 50.0 mg/kg/injection, schedule: Q01DX011 (ip), vehicle: methylcellulose (MC)): 30 % of control
- T/C (dose: 62.0 mg/kg/injection, schedule: Q01DX011 (ip), vehicle: carboxymethylcellulose (CMC)): 47 % of control
- T/C (dose: 62.0 mg/kg/injection, schedule: Q01DX011 (ip), vehicle: methylcellulose (MC)): 94 % of control
- T/C (dose: 62.5 mg/kg/injection, schedule: Q01DX011 (ip), vehicle: carboxymethylcellulose (CMC)): 55 % of control
- T/C (dose: 80.0 mg/kg/injection, schedule: Q01DX011 (ip), vehicle: saline): 30 % of control
- T/C (dose: 100.0 mg/kg/injection, schedule: Q01DX011 (ip), vehicle: methylcellulose (MC)): 22 % of control
- T/C (dose: 160.0 mg/kg/injection, schedule: Q01DX011 (ip), vehicle: saline): 17 % of control
- T/C (dose: 600.0 mg/kg/injection, schedule: Q01DX011 (ip), vehicle: saline): 3 % of control

SMILES: CCOc1nc(N)nc2n[nH]nc12
- T/C (dose: 75.0 mg/kg/injection, schedule: Q01DX011 (ip), vehicle: carboxymethylcellulose (CMC)): 67 % of control
- T/C (dose: 150.0 mg/kg/injection, schedule: Q01DX011 (ip), vehicle: carboxymethylcellulose (CMC)): 9 % of control

SMILES: CC(=O)OCC(=O)[C@@]1(O)CC[C@H]2[C@@H]3C=C(C)C4=CC(=O)CC[C@]4(C)[C@H]3[C@@H](O)C[C@@]21C
- T/C (dose: 11.2 mg/kg/injection, schedule: Q01DX011 (sc), vehicle: steriod suspending solution): 36 % of control and 57 % of control
- T/C (dose: 22.5 mg/kg/injection, schedule: Q01DX011 (sc), vehicle: steriod suspending solution): 42 % of control and 50 % of control
- T/C (dose: 45.0 mg/kg/injection, schedule: Q01DX011 (sc), vehicle: steriod suspending solution): 23 % of control and 24 % of control
- T/C (dose: 90.0 mg/kg/injection, schedule: Q01DX011 (sc), vehicle: steriod suspending solution): 15 % of control and 16 % of control
- T/C (dose: 180.0 mg/kg/injection, schedule: Q01DX011 (sc), vehicle: steriod suspending solution): 10 % of control

SMILES: O=P(Oc1ccccc1)(OP(=O)(Oc1ccccc1)N(CCCl)CCCl)N(CCCl)CCCl (stereo not drawn)
- T/C (dose: 25.0 mg/kg/injection, schedule: Q01DX011 (ip), vehicle: other): 82 % of control
- T/C (dose: 50.0 mg/kg/injection, schedule: Q01DX011 (ip), vehicle: other): 66 % of control

SMILES: Cn1c(=O)c2c(nc(C#N)n2C)n(C)c1=O
- T/C [1]: 104 % of control
- T/C (dose: 75.0 mg/kg/injection, schedule: Q01DX011 (ip), vehicle: methylcellulose (MC)): 102 % of control
- T/C (dose: 225.0 mg/kg/injection, schedule: Q01DX011 (ip), vehicle: methylcellulose (MC)): 58 % of control

SMILES: CC(C)CCn1cnc2c(SCC(=O)O)nc(N)nc21
- T/C (dose: 20.0 mg/kg/injection, schedule: Q01DX011 (ip), vehicle: methylcellulose (MC)): 46 % of control
- T/C (dose: 65.0 mg/kg/injection, schedule: Q01DX011 (ip), vehicle: methylcellulose (MC)): 56 % of control
- T/C (dose: 200.0 mg/kg/injection, schedule: Q01DX011 (ip), vehicle: methylcellulose (MC)): 55 % of control
